Laboratory results published in PubChem BioAssay AID250 (DTP/NCI, 2004).
“And” between values parts separate entries of the source, which are not always exact repeats. Equal entries are not always repeated. Inconclusive results and toxic doses are left out. How the source made its calls: active means survival T/C of 150% or more; inactive means T/C below 125% in these data.

Test system: BDF1 mice, L1210 leukemia sc, survival T/C
Experiment: NCI In Vivo Anticancer Drug Screen. Data for tumor model L1210 Leukemia (subcutaneous) in B6D2F1 (BDF1) mice
Conditions: endpoint: median survival time, higher = longer survival
In short: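 Read-out: T/C ratio, i.e. survival or tumor size in treated mice over that in vehicle-treated controls, from mice bearing transplantable tumors.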

[1] = dose: 65.0 mg/kg/injection, schedule: Q01DX Z (sc), vehicle: carboxymethylcellulose (CMC)
[2] = dose: 108.0 mg/kg/injection, schedule: Q01DX Z (sc), vehicle: carboxymethylcellulose (CMC)
[3] = dose: 65.0 mg/kg/injection, schedule: Q01DX Z (sc), vehicle: methylcellulose (MC)
[4] = dose: 108.0 mg/kg/injection, schedule: Q01DX Z (sc), vehicle: methylcellulose (MC)
[5] = dose: 180.0 mg/kg/injection, schedule: Q01DX Z (sc), vehicle: methylcellulose (MC)
[6] = dose: 300.0 mg/kg/injection, schedule: Q01DX Z (sc), vehicle: methylcellulose (MC)
[7] = dose: 500.0 mg/kg/injection, schedule: Q01DX Z (sc), vehicle: methylcellulose (MC)
[8] = dose: 14.0 mg/kg/injection, schedule: Q01DX Z (sc), vehicle: methylcellulose (MC)
[9] = dose: 23.0 mg/kg/injection, schedule: Q01DX Z (sc), vehicle: methylcellulose (MC)
[10] = dose: 39.0 mg/kg/injection, schedule: Q01DX Z (sc), vehicle: methylcellulose (MC)

Measured: T/C

C[C@H](N)C(=O)N[C@@H]1[C@H]2C(=C(O)C[C@@H](O)[C@@H]2O)C(=O)O[C@@H]1C
active: dose: 833.0 mg/kg/injection, schedule: Q01DX Z (sc), vehicle: saline 163 % of control | dose: 1800.0 mg/kg/injection, schedule: Q01DX Z (sc), vehicle: saline 150 % of control
inactive: dose: 39.0 mg/kg/injection, schedule: Q01DX Z (sc), vehicle: saline 109 % of control | dose: 65.0 mg/kg/injection, schedule: Q01DX Z (sc), vehicle: saline 109 % of control | dose: 108.0 mg/kg/injection, schedule: Q01DX Z (sc), vehicle: saline 100 % of control | dose: 180.0 mg/kg/injection, schedule: Q01DX Z (sc), vehicle: saline 100 % of control and 104 % of control | dose: 180.0 mg/kg/injection, schedule: Q#A X Z (sc), vehicle: saline 103 % of control | dose: 300.0 mg/kg/injection, schedule: Q01DX Z (sc), vehicle: saline 100 % of control and 109 % of control | dose: 300.0 mg/kg/injection, schedule: Q#A X Z (sc), vehicle: saline 107 % of control | dose: 389.0 mg/kg/injection, schedule: Q01DX Z (sc), vehicle: saline 112 % of control | dose: 500.0 mg/kg/injection, schedule: Q01DX Z (sc), vehicle: saline 107 % of control and 118 % of control | dose: 500.0 mg/kg/injection, schedule: Q#A X Z (sc), vehicle: saline 103 % of control | dose: 1388.0 mg/kg/injection, schedule: Q#A X Z (sc), vehicle: saline 115 % of control

CC[n+]1c(-c2ccccc2)c2cc(N)ccc2c2ccc(N)cc21
inactive: dose: 39.0 mg/kg/injection, schedule: Q01DX Z (sc), vehicle: carboxymethylcellulose (CMC) 110 % of control | [1] 115 % of control | [2] 95 % of control

Nc1nc(=S)c2ncn(C3OC(COC(=O)c4ccc(Cl)cc4)C(OC(=O)c4ccc(Cl)cc4)C3OC(=O)c3ccc(Cl)cc3)c2[nH]1 (stereo not drawn)
active: dose: 200.0 mg/kg/injection, schedule: Q01DX Z (sc), vehicle: carboxymethylcellulose (CMC) 150 % of control
inactive: dose: 12.5 mg/kg/injection, schedule: Q01DX Z (sc), vehicle: carboxymethylcellulose (CMC) 100 % of control | dose: 25.0 mg/kg/injection, schedule: Q01DX Z (sc), vehicle: carboxymethylcellulose (CMC) 106 % of control | dose: 50.0 mg/kg/injection, schedule: Q01DX Z (sc), vehicle: carboxymethylcellulose (CMC) 100 % of control | [1] 100 % of control | dose: 100.0 mg/kg/injection, schedule: Q01DX Z (sc), vehicle: carboxymethylcellulose (CMC) 112 % of control | [2] 122 % of control

C[C@]12CCC(=O)C=C1CC[C@@H]1[C@@H]2[C@@H](O)C[C@@]2(C)[C@H]1CC[C@]2(O)C(=O)CO
inactive: [3] 100 % of control | [4] 100 % of control | [5] 100 % of control | [6] 100 % of control | [7] 100 % of control

C[n+]1c2cc(N)ccc2cc2ccc(N)cc21
inactive: dose: 23.0 mg/kg/injection, schedule: Q01DX Z (sc), vehicle: water 90 % of control and 100 % of control

C=CCCCCCCCCC(C)(N)C(=O)O (stereo not drawn)
inactive: [8] 100 % of control | [9] 90 % of control | [10] 90 % of control | [3] 95 % of control | [4] 95 % of control | [5] 100 % of control | [6] 95 % of control

O[C@H](CN1CC1)[C@@H](O)CN1CC1
active: dose: 0.6 mg/kg/injection, schedule: Q01DX Z (sc), vehicle: saline 177 % of control | dose: 0.65 mg/kg/injection, schedule: Q01DX Z (sc), vehicle: saline 183 % of control | dose: 1.0 mg/kg/injection, schedule: Q01DX Z (sc), vehicle: saline 172 % of control | dose: 1.08 mg/kg/injection, schedule: Q01DX Z (sc), vehicle: saline 155 % of control
inactive: dose: 0.14 mg/kg/injection, schedule: Q01DX Z (sc), vehicle: saline 100 % of control | dose: 0.22 mg/kg/injection, schedule: Q01DX Z (sc), vehicle: saline 111 % of control | dose: 0.23 mg/kg/injection, schedule: Q01DX Z (sc), vehicle: saline 111 % of control | dose: 2.8 mg/kg/injection, schedule: Q01DX Z (sc), vehicle: saline 122 % of control

C[C@]12C=CC(=O)C=C1CC[C@@H]1[C@@H]2C(=O)C[C@@]2(C)[C@H]1CC[C@]2(O)C(=O)CO
active: dose: 389.0 mg/kg/injection, schedule: Q02DX Z (sc), vehicle: water 155 % of control | dose: 1080.0 mg/kg/injection, schedule: Q02DX Z (sc), vehicle: water 155 % of control
inactive: dose: 25.0 mg/kg/injection, schedule: Q01DX009 (sc), vehicle: water 100 % of control | dose: 50.0 mg/kg/injection, schedule: Q01DX009 (sc), vehicle: water 100 % of control | dose: 100.0 mg/kg/injection, schedule: Q01DX009 (sc), vehicle: water 100 % of control | [4] 109 % of control | dose: 140.0 mg/kg/injection, schedule: Q01DX Z (oral), vehicle: water 111 % of control | dose: 140.0 mg/kg/injection, schedule: Q02DX Z (sc), vehicle: water 122 % of control | dose: 180.0 mg/kg/injection, schedule: Q01DX009 (sc), vehicle: water 116 % of control | [5] 100 % of control | dose: 180.0 mg/kg/injection, schedule: Q02DX009 (sc), vehicle: steriod suspending solution 107 % of control | dose: 180.0 mg/kg/injection, schedule: Q02DX Z (sc), vehicle: steriod suspending solution 111 % of control | dose: 200.0 mg/kg/injection, schedule: Q01DX009 (sc), vehicle: water 100 % of control | dose: 233.0 mg/kg/injection, schedule: Q01DX Z (oral), vehicle: water 111 % of control | [6] 109 % of control and 112 % of control | dose: 300.0 mg/kg/injection, schedule: Q02DX009 (sc), vehicle: steriod suspending solution 104 % of control | dose: 300.0 mg/kg/injection, schedule: Q02DX Z (sc), vehicle: steriod suspending solution 105 % of control | dose: 389.0 mg/kg/injection, schedule: Q01DX Z (oral), vehicle: water 116 % of control | dose: 400.0 mg/kg/injection, schedule: Q01DX009 (sc), vehicle: water 88 % of control and 100 % of control | [7] 104 % of control and 112 % of control | dose: 500.0 mg/kg/injection, schedule: Q02DX009 (sc), vehicle: steriod suspending solution 101 % of control | dose: 500.0 mg/kg/injection, schedule: Q02DX Z (sc), vehicle: steriod suspending solution 100 % of control | dose: 648.0 mg/kg/injection, schedule: Q01DX Z (oral), vehicle: water 122 % of control | dose: 800.0 mg/kg/injection, schedule: Q01DX009 (sc), vehicle: water 94 % of control and 100 % of control | dose: 833.0 mg/kg/injection, schedule: Q01DX Z (sc), vehicle: methylcellulose (MC) 100 % of control and 112 % of control | dose: 833.0 mg/kg/injection, schedule: Q02DX009 (sc), vehicle: steriod suspending solution 103 % of control | dose: 833.0 mg/kg/injection, schedule: Q02DX Z (sc), vehicle: steriod suspending solution 105 % of control | dose: 1080.0 mg/kg/injection, schedule: Q01DX Z (oral), vehicle: water 111 % of control | dose: 1388.0 mg/kg/injection, schedule: Q02DX009 (sc), vehicle: steriod suspending solution 101 % of control | dose: 1388.0 mg/kg/injection, schedule: Q02DX Z (sc), vehicle: steriod suspending solution 100 % of control

CS(=O)(=O)OCCCl
inactive: [8] 90 % of control | [9] 95 % of control | [10] 90 % of control | [3] 100 % of control

CN(C)c1ccc(/C=C/c2ccc3ccccc3[n+]2C)cc1
inactive: dose: 0.65 mg/kg/injection, schedule: Q01DX Z (sc), vehicle: methylcellulose (MC) 100 % of control | dose: 1.08 mg/kg/injection, schedule: Q01DX Z (sc), vehicle: methylcellulose (MC) 100 % of control | dose: 1.8 mg/kg/injection, schedule: Q01DX Z (sc), vehicle: methylcellulose (MC) 104 % of control | dose: 3.0 mg/kg/injection, schedule: Q01DX Z (sc), vehicle: methylcellulose (MC) 104 % of control | dose: 5.0 mg/kg/injection, schedule: Q01DX Z (sc), vehicle: methylcellulose (MC) 104 % of control

CCSc1ncnc2nc[nH]c12
inactive: dose: 38.9 mg/kg/injection, schedule: Q01DX Z (sc), vehicle: methylcellulose (MC) 100 % of control | dose: 64.8 mg/kg/injection, schedule: Q01DX Z (sc), vehicle: methylcellulose (MC) 100 % of control | [4] 110 % of control | [5] 100 % of control | [6] 110 % of control
